Assay results published in patent US7563613B2, “Detoxification and decontamination using nanotechnology therapy” (University of Florida, priority 2001, dated 2009).
One block for each compound: values may come before it.

Key:
[1] = tested on: guinea pig isolated hearts; experiment: bupivacaine-induced QRS prolongation in isolated hearts (FIG. 8); settings: bupivacaine (1 μM); isolated hearts paced at 200 BPM
[2] = cited from earlier work
[3] = at toxic plasma concentration; cited from earlier work

- QRS prolongation [1]: induces QRS prolongation
SMILES: CCCCN1CCCCC1C(=O)Nc1c(C)cccc1C (stereo not shown) [Bupivacaine, bupivacaine]

SMILES: CN(C)CCC=C1c2ccccc2CCc2ccccc21 [amitriptyline]
- plasma concentration that begins to cause cardiac toxicity ([2]; in vivo): ~1,000 ng/ml
- bound in plasma [3]: 94.8±0.8%

SMILES: C[C@H]1O[C@@H](O[C@H]2[C@@H](O)C[C@H](O[C@H]3[C@@H](O)C[C@H](O[C@H]4CC[C@@]5(C)[C@H](CC[C@@H]6[C@@H]5C[C@@H](O)[C@]5(C)[C@@H](C7=CC(=O)OC7)CC[C@]65O)C4)O[C@@H]3C)O[C@@H]2C)C[C@H](O)[C@@H]1O [digoxin]
- concentration at which toxicity is caused ([2]; low concentrations): approximately 1 nM
